Experimental data from patent US20190337910A1, “ALLOSTERIC MODULATORS OF NICOTINIC ACETYLCHOLINE RECEPTORS” (MERCK SHARP & DOHME CORP., priority 2016, published 2019).
Like-named read-outs stand apart in the source and are kept apart here.

Target: T1, human α7 nAChR stably expressed in a HEK cell line (with human RIC-3) (Homo sapiens, UniProt P36544)
T1 construct: PrecisION hnAChR α7/RIC-3 (product name; no catalogue number given)
Experiment: Automated patch-clamp electrophysiology functional assay (Assay A), IonFlux HT, whole-cell population patch
Format: cell-based
Procedure: The α7 nAChR positive allosteric modulator (PAM) activity of the present compounds may be tested using assays known in the art. The α7 nAChR PAMs described herein have activities in an automated patch-clamp electrophysiology functional assay as described in the examples. The assay was performed using the IonFlux HT in a whole-cell, population patch configuration. See Golden et al. Assay Drug Dev. Technol. (2011) 9:608-619. The compounds were assessed for their ability to modulate the function of the human α7 nAChR stably expressed in a HEK cell line both in the presence, and in the absence of the natural α7 agonist acetylcholine. By performing a series of such measurements at different concentrations, the effective concentration of the α7 nAChR PAMs (EC50) was determined. See Spencer et al. Assay Drug Dev. Technol. (2012) 10:313-324.
Direct activation of α7 (agonism), and potentiation of acetylcholine-evoked α7 currents was determined as follows:
Automated Patch-Clamp Electrophysiology Functional Assay (Assay A)
Automated patch-clamp electrophysiology was performed using the IonFlux HT (Fluxion Biosciences Inc., San Francisco, Calif.) in the whole-cell, population patch configuration. Test compounds were assessed for their ability to modulate the function of the α7 nicotinic acetylcholine receptor both in the presence, and in the absence of the natural α7 agonist acetylcholine. A HEK cell line stably expressing both human RIC-3 and human α7 (PrecisION hnAChR α7/RIC-3, Eurofins Pharma, St. Charles, Mo.) was cultured in 175 cm^2 triple-layer tissue culture flasks to no more than 90% confluency in DMEM/F-12 growth media supplemented with 10% heat-inactivated fetal bovine serum, 1% non-essential amino acids, 0.625 μg/mL Puromycin, and 400 μg/mL Geneticin. Immediately prior to assay, cells were detached by first aspirating growth media, rinsing with Dulbecco's phosphate buffered saline, and then adding 10 mL of Accutase (Innovative Cell Technologies, San Diego, Calif.) to the flask and then incubating at 37° C. for 5 minutes. Detached cells were then recovered by the addition of 40 mL of CHO-serum-free media supplemented with 25 mM HEPES, and rocked gently in a 50 mL conical tube for 20 minutes prior to patch-clamp assay. After recovery, cells were pelleted by centrifugation at 1,000 RPM for 1 minute in a compact bench top centrifuge; recovery media was aspirated and cells were resuspended in external recording solution (150 mM NaCl, 5 mM KCl, 2 mM CaCl2, 1 mM MgCl2, 10 mM HEPES, 12 mM dextrose) to a density of 5.0×10^6 cells/mL. The cell suspension was added to the cell inlet wells on an IonFlux HT population patch plate which had previously been rinsed and primed with deionized H2O. Test compounds were serially diluted in DMSO and then resuspended to the final test concentration in external recording solution, with, or without 40 μM acetylcholine added to the external recording solution; test compounds were then transferred to the IonFlux HT population patch plate. Internal recording solution (110 mM TrisPO4, 28 mM TrisBase, 0.1 mM CaCl2, 2 mM MgCl2, 11 mM EGTA, 4 mM MgATP) was added to the internal recording solution inlet wells on the IonFlux HT patch plate previously loaded with cells and test compounds, and the plate loaded into the IonFlux HT instrument. A protocol was executed on the IonFlux HT to trap the cells, break into the cells, and establish the whole-cell recording configuration; cells were voltage-clamped at a holding potential of −60 mV for the duration of the experiment, all experiments were conducted at room temperature, and the IonFlux HT injection pressure was 8 psi for solution applications. Upon establishing the whole-cell configuration, external recording solution was perfused into the recording chambers for 120 seconds and then 40 μM acetylcholine was applied for 1 second and immediately washed off with external recording solution for 60 seconds. […]

[1] = HEK cell line stably expressing human α7 and human RIC-3, 40 μM acetylcholine, holding potential −60 mV, room temperature, read-out: α7 nAChR EC50
[2] = automated patch-clamp electrophysiology functional assay (Assay A), potency class by EC50, read-out: α7 nAChR Potency

T1 sequence (P36544 23-502): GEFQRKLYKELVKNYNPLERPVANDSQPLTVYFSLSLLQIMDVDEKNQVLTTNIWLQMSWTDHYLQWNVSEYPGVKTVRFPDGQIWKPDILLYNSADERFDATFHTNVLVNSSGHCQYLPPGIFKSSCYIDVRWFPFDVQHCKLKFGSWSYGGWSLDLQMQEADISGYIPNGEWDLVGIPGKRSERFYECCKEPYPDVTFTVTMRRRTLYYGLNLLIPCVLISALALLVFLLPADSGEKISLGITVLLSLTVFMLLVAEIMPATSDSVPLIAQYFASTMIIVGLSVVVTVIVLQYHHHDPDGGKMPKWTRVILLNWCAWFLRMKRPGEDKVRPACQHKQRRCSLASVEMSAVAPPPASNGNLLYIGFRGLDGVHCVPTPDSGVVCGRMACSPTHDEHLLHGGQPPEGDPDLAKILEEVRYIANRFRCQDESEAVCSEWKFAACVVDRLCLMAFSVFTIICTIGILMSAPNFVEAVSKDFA

| Molecule | EC50 [1] [nM] | EC50 [2] [nM] |
| --- | --- | --- |
| 4-{(1S,3S)-3-[2-(3-Fluorophenyl)-1-methyl-1H-imidazol-4-yl]-2,2-dimethylcycloproyl}benzenesulfonamide [Example 35] | 4400 | 500 to 5000 |
| NS(=O)(=O)c1ccc(C2C(c3cnc(-c4ccccc4)o3)C2(F)F)cc1 (racemic) [Example M1] |  | 500 to 5000 |
| NS(=O)(=O)c1ccc(C2C(c3nc(-c4ccccc4)no3)C2(Cl)Cl)cc1 (racemic) [Example M9] | 140 | 100 to 500 |
| Cc1cc(C2C(c3nc(-c4ccccc4)no3)C2(C)C)ccc1S(N)(=O)=O (single isomer, unassigned) [Example M8] |  | 5000 to 50000 |
| Cc1cc(S(N)(=O)=O)ccc1[C@H]1C(c2nc(-c3ccccc3)no2)C1(C)C (single isomer, unassigned; enantiomer a) [Example 38, 4-[trans-2,2-Dimethyl-3-(3-phenyl-1,2,4-oxadiazol-5-yl)cyclopropyl]-3-methylbenzenesulfonamide, enantiomer A] | 4300 | 500 to 5000 |
| CC1(C)[C@H](c2ccc(S(N)(=O)=O)cc2)[C@H]1c1nc(-c2ccc(F)cc2C(F)(F)F)no1 [Example A2] | 1700 | 500 to 5000 |
| Cc1cccc(F)c1-c1noc([C@@H]2C[C@H]2c2ccc(S(N)(=O)=O)cc2)n1 [Example C11] |  | 100 to 500 |
| CC1(c2nc(-c3ccc(F)cc3F)no2)CC1c1ccc(S(N)(=O)=O)cc1 (centres unmarked) [Example E3] | 6900 | 5000 to 50000 |
| CC1(c2ccc(S(N)(=O)=O)cc2)CC1c1nc(-c2ccc(F)cc2F)no1 (centres unmarked) [Example E4] | 1700 | 500 to 5000 |
| CC1(C)[C@H](c2ccc(S(N)(=O)=O)cc2)[C@H]1c1nnc(C2CCCCC2)s1 [Example F7] |  | 500 to 5000 |
| CC(Oc1cccc(Cl)c1)c1nc(C2C(c3ccc(S(N)(=O)=O)cc3)C2(C)C)no1 (centres unmarked) [Example I2] |  | ≤ 100 |
| CC1(C)[C@@H](c2ccc(S(N)(=O)=O)cc2)[C@@H]1c1noc(-c2ccncc2C(F)(F)F)n1 [Example I20] | 450 |  |
| CC1(C)[C@H](c2ccc(S(N)(=O)=O)cc2)[C@H]1c1nc(C2CC2)co1 [Example J5] |  | 500 to 5000 |
| CC1(C)[C@@H](c2ccc(S(N)(=O)=O)cc2)[C@@H]1c1nc(-c2cc(F)ccc2F)co1 [Example K2] | 1600 | 500 to 5000 |
| CC1(C)[C@@H](c2ccc(S(N)(=O)=O)cc2)[C@@H]1c1nc(-c2cccc(F)c2)cs1 [Example K10] | 3900 | 500 to 5000 |
| CC(C)c1csc([C@H]2[C@H](c3ccc(S(N)(=O)=O)cc3)C2(C)C)n1 [Example K11] | 1100 | 500 to 5000 |
| NS(=O)(=O)c1ccc([C@@H]2C[C@H]2c2ncc(C3CCCC3)s2)cc1 [Example K15] |  | 100 to 500 |
